Data: ChEMBL document CHEMBL2073794, “Catecholamine transport by the organic cation transporter type 1 (OCT1)” (Br J Pharmacol, 1998)

Molecular target: T1, Solute carrier family 22 member 1 (Rattus norvegicus, UniProt Q63089)
T1 sequence (Q63089 whole entry): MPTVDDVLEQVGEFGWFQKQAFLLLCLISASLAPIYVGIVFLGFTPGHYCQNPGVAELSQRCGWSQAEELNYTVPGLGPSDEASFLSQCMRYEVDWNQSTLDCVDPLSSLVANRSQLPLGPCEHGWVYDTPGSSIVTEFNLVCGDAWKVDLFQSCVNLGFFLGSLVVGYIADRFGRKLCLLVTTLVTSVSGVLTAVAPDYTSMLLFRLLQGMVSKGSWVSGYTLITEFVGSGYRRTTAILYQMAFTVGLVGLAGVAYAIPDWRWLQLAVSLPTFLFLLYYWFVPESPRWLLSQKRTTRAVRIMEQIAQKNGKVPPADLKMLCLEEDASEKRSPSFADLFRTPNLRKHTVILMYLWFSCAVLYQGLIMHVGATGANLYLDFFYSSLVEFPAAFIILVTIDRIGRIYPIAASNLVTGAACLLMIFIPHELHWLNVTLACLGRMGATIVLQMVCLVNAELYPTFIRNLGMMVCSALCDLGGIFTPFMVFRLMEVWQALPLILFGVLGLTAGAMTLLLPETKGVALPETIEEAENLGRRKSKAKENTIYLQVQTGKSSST
Assay: TP_TRANSPORTER: uptake in OCT1-expressing HEK293 cells
Type: functional, cell-based
Details: human

| Structure (SMILES) | Activity |
| --- | --- |
| NCCc1ccc(O)c(O)c1 [DOPAMINE] | substrate [+] |
| CNC[C@H](O)c1ccc(O)c(O)c1 [EPINEPHRINE] | substrate [+] |
| NC[C@H](O)c1ccc(O)c(O)c1 [NOREPINEPHRINE] | substrate [+] |
| NCCc1c[nH]c2ccc(O)cc12 [SEROTONIN] | substrate [+] |
| CC[N+](CC)(CC)CC [TETRYLAMMONIUM] | substrate [+] |
| NCCc1ccc(O)cc1 [TYRAMINE] | substrate [+] |
